Reference: PubChem BioAssay (NCI)
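Values below derive from 48-hour exposures of cells grown in 96-well plates, with endpoints linearly interpolated between the two concentrations bracketing the appropriate inhibition level. GI50 is the concentration that inhibits growth by half. TGI marks complete inhibition of growth.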

Tests used:
Test in all cases: NCI-60 cell line screen, 48 h
NCI-H460 lung = tested on: NCI-H460 lung
DU-145 prostate = tested on: DU-145 prostate
ACHN renal = tested on: ACHN renal
NCI-H226 lung = tested on: NCI-H226 lung
BT-549 breast = tested on: BT-549 breast
MCF7 breast = tested on: MCF7 breast
SF-295 CNS = tested on: SF-295 CNS
CAKI-1 renal = tested on: CAKI-1 renal
UACC-62 melanoma = tested on: UACC-62 melanoma
786-0 renal = tested on: 786-0 renal
CCRF-CEM leukemia = tested on: CCRF-CEM leukemia
HS 578T breast = tested on: HS 578T breast
RXF 393 renal = tested on: RXF 393 renal
SK-OV-3 ovarian = tested on: SK-OV-3 ovarian
SNB-75 CNS = tested on: SNB-75 CNS
SW-620 colon = tested on: SW-620 colon
MDA-MB-468 breast = tested on: MDA-MB-468 breast
HCC-2998 colon = tested on: HCC-2998 colon
HCT-116 colon = tested on: HCT-116 colon
SK-MEL-2 melanoma = tested on: SK-MEL-2 melanoma
MOLT-4 leukemia = tested on: MOLT-4 leukemia
NCI-H23 lung = tested on: NCI-H23 lung
HL-60(TB) leukemia = tested on: HL-60(TB) leukemia
COLO 205 colon = tested on: COLO 205 colon
OVCAR-3 ovarian = tested on: OVCAR-3 ovarian
IGROV1 ovarian = tested on: IGROV1 ovarian
UO-31 renal = tested on: UO-31 renal
SNB-19 CNS = tested on: SNB-19 CNS
SR leukemia = tested on: SR leukemia
M14 melanoma = tested on: M14 melanoma

In the case of `O=C1CCC(N2Cc3c(C#CCCCNC(=O)c4ccc(NC(=O)[C@@H]5NC6(CCCCC6)[C@@]6(C(=O)Nc7cc(Cl)ccc76)[C@H]5c5cccc(Cl)c5F)cc4)cccc3C2=O)C(=O)N1` (stereo partly drawn), the GI50 (NCI-H460 lung) is reported as 2.09 µM, the TGI (NCI-H460 lung) is reported as greater than 100 µM and the GI50 (DU-145 prostate) is reported as greater than 100 µM. For the same molecule, the TGI (DU-145 prostate) was greater than 100 µM, the GI50 (ACHN renal) was 3.86 µM and the TGI (ACHN renal) was greater than 100 µM. It also gave a GI50 (NCI-H226 lung) of 0.2 µM, a TGI (NCI-H226 lung) greater than 74.5 µM and a GI50 (BT-549 breast) of 13.1 µM. The TGI (BT-549 breast) was greater than 100 µM, the TGI (MCF7 breast) was greater than 49.8 µM and the GI50 (SF-295 CNS) was 10.8 µM. It also gave a TGI (SF-295 CNS) greater than 100 µM, a GI50 (CAKI-1 renal) of 1.2 µM and a TGI (CAKI-1 renal) greater than 100 µM. For the same molecule, the GI50 (UACC-62 melanoma) was 0.445 µM, the TGI (UACC-62 melanoma) was greater than 100 µM and the GI50 (786-0 renal) was 35.2 µM. The TGI (786-0 renal) was greater than 100 µM, the GI50 (CCRF-CEM leukemia) was 11.6 µM and the TGI (CCRF-CEM leukemia) was greater than 100 µM. It also gave a GI50 (HS 578T breast) of 4.3 µM, a TGI (HS 578T breast) greater than 100 µM and a GI50 (RXF 393 renal) of 5.81 µM. For the same molecule, the TGI (RXF 393 renal) was greater than 79 µM, the GI50 (SK-OV-3 ovarian) was greater than 95.6 µM and the TGI (SK-OV-3 ovarian) was greater than 100 µM. The GI50 (SNB-75 CNS) was 2.5 µM, the TGI (SNB-75 CNS) was greater than 72.1 µM and the GI50 (SW-620 colon) was greater than 100 µM. For the same molecule, the TGI (SW-620 colon) was greater than 100 µM, the GI50 (MDA-MB-468 breast) was 4.38 µM and the TGI (MDA-MB-468 breast) was greater than 35.7 µM. The GI50 (HCC-2998 colon) was 9.57 µM, the TGI (HCC-2998 colon) was greater than 100 µM and the GI50 (HCT-116 colon) was 2.45 µM. It also gave a TGI (HCT-116 colon) greater than 100 µM, a GI50 (SK-MEL-2 melanoma) greater than 100 µM and a TGI (SK-MEL-2 melanoma) greater than 100 µM. The TGI (MOLT-4 leukemia) was 1.43 µM, the GI50 (NCI-H23 lung) was greater than 88 µM and the TGI (NCI-H23 lung) was greater than 100 µM. The GI50 (HL-60(TB) leukemia) was 6.77 µM, the TGI (HL-60(TB) leukemia) was greater than 100 µM and the GI50 (COLO 205 colon) was 72 µM. For the same molecule, the TGI (COLO 205 colon) was greater than 100 µM, the GI50 (OVCAR-3 ovarian) was 15.8 µM and the TGI (OVCAR-3 ovarian) was greater than 100 µM. The GI50 (IGROV1 ovarian) was 1.76 µM, the TGI (IGROV1 ovarian) was greater than 44 µM and the GI50 (UO-31 renal) was 3.04 µM. It also gave a TGI (UO-31 renal) greater than 100 µM, a GI50 (SNB-19 CNS) greater than 50.1 µM and a TGI (SNB-19 CNS) greater than 100 µM. It also gave a GI50 (SR leukemia) of 0.25 µM, a TGI (SR leukemia) of 3.11 µM and a GI50 (M14 melanoma) of 75 µM. The TGI (M14 melanoma) was greater than 100 µM.
